# Source: patent US20100267743A1, “3-(PHENOXYPYRROLIDIN-3-YL-METHYL)HETEROARYL, 3-(PHENYLPYRROLIDIN-3-YLMETHOXY)HETEROARYL, AND 3-(HETEROARYLPYRROLIDIN-3-YLMETHOXY)HETEROARYL COMPOUNDS” (priority 2009, published 2010)
# Legend:
# SERT = SERT (Homo sapiens, UniProt P31645); assay: hSERT radioligand binding assay (3H-citalopram); design: expressed in transfected cells; host or cells: HEK-293; conditions: hSERT membranes (HEK-293), 1.0 nM 3H-citalopram; for Ki: read-out: SERT pKi (converted)
# Procedure: (§1) Membrane radioligand binding assays were used to measure inhibition of labeled ligand (^3H-citalopram or ^3H-nisoxetine or ^3H-WIN35428) binding to membranes prepared from cells expressing the respective human recombinant transporter (hSERT or hNET or hDAT) in order to determine the pKi values of test compounds at the transporters.
# (§2) Recombinant human embryonic kidney (HEK-293) derived cell lines stably transfected with hSERT or hNET, respectively, were grown in DMEM medium supplemented with 10% dialyzed FBS (for hSERT) or FBS (for hNET), 100 μg/ml penicillin, 100 μg/ml streptomycin, 2 mM L-glutamine and 250 μg/ml of the aminoglycoside antibiotic G418, in a 5% CO2 humidified incubator at 37° C. When cultures reached 80% confluence, the cells were washed thoroughly in PBS (without […] and Mg^2+) and lifted with 5 mM EDTA in PBS. Cells were pelleted by centrifugation, resuspended in lysis buffer (10 mM Tris-HCl, pH7.5 containing 1 mM EDTA), homogenized, pelleted by centrifugation, then resuspended in 50 mM Tris-HCl, pH 7.5 and 10% sucrose at 4° C. Protein concentration of the membrane suspension was determined using a Bio-Rad Bradford Protein Assay kit. Membranes were snap frozen and stored at −80° C. Chinese hamster ovary membranes expressing hDAT (CHO-DAT) were purchased from PerkinElmer and stored at −80° C.
# (§3) Binding assays were performed in a 96-well assay plate in a total volume of 200 μl assay buffer (50 mM Tris-HCl, 120 mM NaCl, 5 mM KCl, pH 7.4) with 0.5, 1, and 3 μg membrane protein, for SERT, NET and DAT, respectively.
# (§4) Stock solutions (10 mM in DMSO) of test compound were prepared and serial dilutions made using Dilution Buffer (50 mM Tris-HCl, 120 mM NaCl, 5 mM KCl, pH 7.4, 0.1% BSA, 400 μM ascorbic acid).
# (§5) Following a 60 minute incubation at 22° C. (or a period sufficient to reach equilibrium), the membranes were harvested by rapid filtration over a 96-well UniFilter GF/B plate, pretreated with 0.3% polyethyleneimine, and washed 6 times with 300 μl wash buffer (50 mM Tris-HCl, 0.9% NaCl, pH 7.5 at 4° C.). Plates were dried overnight at room temperature, ˜45 μl of MicroScint™-20 (Perkin Elmer) added and bound radioactivity quantitated via liquid scintillation spectroscopy. Inhibition curves and saturation isotherms were analyzed using GraphPad Prism Software package (GraphPad Software, Inc., San Diego, Calif.). IC50 values were generated from concentration response curves using the Sigmoidal Dose Response (variable slope) algorithm in Prism GraphPad. Kd and Bmax values for the radioligand were generated from saturation isotherms using the Saturation Binding Global Fit algorithm in Prism GraphPad. pKi (negative decadic logarithm of Ki) values for test compounds were calculated from the best-fit IC50 values, and the Kd value of the radioligand, using the Cheng-Prusoff equation (Cheng & Prusoff (1973) Biochem. Pharmacol. 22(23):3099-3108): Ki=IC50/(1+[L]/Kd), where [L]=concentration radioligand.
# NET = NET (Homo sapiens, UniProt P23975); assay: hNET radioligand binding assay (3H-nisoxetine); design: expressed in transfected cells; host or cells: HEK-293; conditions: hNET membranes (HEK-293), 1.0 nM 3H-nisoxetine; for Ki: read-out: NET pKi (converted)
# Procedure: as §1, §2, §3, §4, §5
# Sequence of NET (P23975 whole entry): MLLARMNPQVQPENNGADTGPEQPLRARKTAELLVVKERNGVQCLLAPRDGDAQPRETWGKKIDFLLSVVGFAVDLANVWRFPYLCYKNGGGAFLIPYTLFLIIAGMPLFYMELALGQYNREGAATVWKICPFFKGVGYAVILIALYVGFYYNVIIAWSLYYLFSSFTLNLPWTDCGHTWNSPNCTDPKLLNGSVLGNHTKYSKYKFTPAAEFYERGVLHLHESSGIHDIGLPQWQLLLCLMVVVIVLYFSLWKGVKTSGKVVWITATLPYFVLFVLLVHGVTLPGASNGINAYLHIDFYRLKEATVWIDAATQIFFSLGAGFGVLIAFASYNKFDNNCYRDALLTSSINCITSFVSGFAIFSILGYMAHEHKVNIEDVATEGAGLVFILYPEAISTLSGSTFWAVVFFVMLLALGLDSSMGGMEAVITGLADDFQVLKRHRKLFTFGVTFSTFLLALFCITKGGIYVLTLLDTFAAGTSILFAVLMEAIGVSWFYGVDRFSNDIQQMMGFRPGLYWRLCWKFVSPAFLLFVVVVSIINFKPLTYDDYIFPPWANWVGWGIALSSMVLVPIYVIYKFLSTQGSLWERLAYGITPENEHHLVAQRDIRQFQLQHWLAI
# Sequence of SERT (P31645 whole entry): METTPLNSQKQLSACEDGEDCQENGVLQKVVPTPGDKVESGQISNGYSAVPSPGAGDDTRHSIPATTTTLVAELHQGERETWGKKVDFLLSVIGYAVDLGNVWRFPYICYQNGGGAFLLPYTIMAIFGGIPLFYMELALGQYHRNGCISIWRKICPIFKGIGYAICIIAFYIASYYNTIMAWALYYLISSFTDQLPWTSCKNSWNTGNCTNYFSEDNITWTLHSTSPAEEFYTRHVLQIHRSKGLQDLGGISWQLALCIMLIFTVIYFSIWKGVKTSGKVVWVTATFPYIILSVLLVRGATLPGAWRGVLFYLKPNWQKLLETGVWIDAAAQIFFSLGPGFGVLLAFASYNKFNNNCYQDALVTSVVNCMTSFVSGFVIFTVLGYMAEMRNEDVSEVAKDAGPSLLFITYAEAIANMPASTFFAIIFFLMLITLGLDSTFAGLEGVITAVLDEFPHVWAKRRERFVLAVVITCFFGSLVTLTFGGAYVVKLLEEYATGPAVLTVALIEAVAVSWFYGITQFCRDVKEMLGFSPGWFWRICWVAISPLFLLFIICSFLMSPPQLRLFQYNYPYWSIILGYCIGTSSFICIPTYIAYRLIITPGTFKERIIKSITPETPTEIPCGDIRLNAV
Ki (SERT) [nM],Ki (NET) [µM],Compound,SERT pKi (SERT),NET pKi (NET)
≤ 100,≤ 10,"Fc1ccc(OC(c2nccs2)C2CCNC2)c(F)c1F [Example 5-1, 2-[(R)-((S)-Pyrrolidin-3-yl-(2,3,4-trifluorophenoxy)methyl]thiazole]",–,–
≤ 100,≤ 0.1,Cc1cc(Cl)cnc1O[C@@H](c1ccccc1)[C@H]1CCNC1 [Example 13],–,–
–,–,O=C(O)C(F)(F)F.c1ccc([C@H](Oc2ccccn2)[C@H]2CCNC2)cc1 [14-41],≧7.0,≧7.0
–,–,"Fc1cc(F)c(OC(c2nccs2)C2CCNC2)c(F)c1.O=C(O)C(F)(F)F (mixture of isomers) [Example 5-5, 2-[((S)-Pyrrolidin-3-yl-(2,4,6-trifluorophenoxy)methyl]thiazole]",≧7.0,≧7.0
≤ 100,≤ 0.1,Clc1cc(Cl)cc(O[C@H](c2ncco2)[C@H]2CCNC2)c1 [6-44],–,–
–,–,Cc1nc(O[C@@H](c2ccccc2)[C@H]2CCNC2)c(Br)cc1Br.O=C(O)C(F)(F)F [14-12],≧7.0,≧7.0
–,–,Cc1ccc(F)c(O[C@H](c2nccs2)[C@H]2CCNC2)c1Cl [Example 5-23],≧7.0,≧7.0
≤ 100,≤ 0.1,"Clc1cc(Cl)cc(O[C@@H](c2ccco2)[C@H]2CCNC2)c1 [Example 8-3, (S)-3-[(R)-(3,5-Dichlorophenoxy)furan-2-yl-methyl]pyrrolidine]",–,–
≤ 100,≤ 10,Fc1ccc(F)c(O[C@H](c2cncnc2)[C@H]2CCNC2)c1Cl [12-2],–,–
–,–,Fc1ncccc1O[C@@H](c1ccccc1)[C@H]1CCNC1.O=C(O)C(F)(F)F [15-8],≧7.0,≧7.0
–,–,"Cc1cc(Cl)c(OC(c2nccs2)C2CCNC2)c(Cl)c1.O=C(O)C(F)(F)F (mixture of isomers) [Example 5-12, 2-[((S)-(2,6-Dichloro-4-methylphenoxy)-pyrrolidin-3-yl-methyl]thiazole]",≧7.0,≧5.0
–,–,Clc1ncccc1O[C@@H](c1ccccc1)[C@H]1CCNC1.O=C(O)C(F)(F)F [15-6],≧7.0,≧7.0
–,–,Fc1ccc(O[C@@H](c2ccccc2)[C@H]2CCNC2)nc1.O=C(O)C(F)(F)F [14-29],≧7.0,≧7.0
–,–,Brc1ccc(O[C@@H](c2ccccc2)[C@H]2CCNC2)nc1.O=C(O)C(F)(F)F [14-20],≧7.0,≧7.0
–,–,CCCOc1ncccc1O[C@@H](c1ccccc1)[C@H]1CCNC1.O=C(O)C(F)(F)F [15-19],≧7.0,≧7.0
≤ 100,≤ 0.1,COc1ccc2ccccc2c1OC(c1ccccc1)C1CCNC1 (centres unmarked) [21-8],–,–
–,–,Clc1ccc(O[C@@H](c2ccccc2)[C@H]2CCNC2)c(Cl)n1.O=C(O)C(F)(F)F [15-3],≧7.0,≧7.0
≤ 100,≤ 10,Clc1cc(O[C@@H](c2ccccc2)C2CCNC2)ccn1 (some centres unmarked) [16-3],–,–
–,–,FC(F)(F)c1cccnc1O[C@H](c1ccccc1)[C@@H]1CCNC1.O=C(O)C(F)(F)F [14-33],≧5.0,≧5.0
–,–,COc1ccc(O[C@@H](c2ccccc2)[C@H]2CCNC2)cn1.O=C(O)C(F)(F)F [15-31],≧7.0,≧5.0
≤ 100,≤ 0.1,"Clc1cc(Cl)cc(O[C@H](c2ccco2)[C@H]2CCNC2)c1 [Example 8-4, (S)-3-[(S)-(3,5-Dichlorophenoxy)furan-2-yl-methyl]pyrrolidine]",–,–
–,–,Cc1c(Cl)cccc1O[C@@H](c1ncco1)[C@H]1CCNC1.O=C(O)C(F)(F)F [6-50],≧7.0,≧7.0

Ki (SERT) [nM],Ki (NET) [µM],Compound,SERT pKi (SERT),NET pKi (NET)
≤ 10000,≤ 10,"Fc1cc(F)c(O[C@@H](c2cccnc2)[C@H]2CCNC2)c(F)c1 [Example 2-68, 3-[(R)-(S)-Pyrrolidin-3-yl-(2,4,6-trifluorophenoxy)methyl]pyridine]",–,–
≤ 100,≤ 10,"Fc1cc(Cl)ccc1OC(c1nccs1)C1CCNC1 [Example 5-32, 2-[(R)-(4-Chloro-2-fluorophenoxy)-((S)-pyrrolidin-3-yl-methyl]thiazole]",–,–
–,–,Cc1cccc(C)c1O[C@@H](c1ncco1)[C@H]1CCNC1.O=C(O)C(F)(F)F [6-14],≧7.0,≧7.0
≤ 100,≤ 0.1,"Cc1ccc(Cl)c(O[C@H](c2ccncc2)[C@H]2CCNC2)c1Cl [Example 3-7, 4-[(S)-(2,6-Dichloro-3-methylphenoxy)-(S)-pyrrolidin-3-yl-methyl]pyridine]",–,–
–,–,COc1cc(F)c(O[C@H](c2nccs2)C2CCNC2)c(F)c1 (some centres unmarked) [Example 5-29],≧7.0,≧5.0
≤ 100,≤ 10,"Fc1cncc(C(Oc2c(F)ccc(F)c2Cl)C2CCNC2)c1 [Example 2-50, 3-[(S)-(2-Chloro-3,6-difluorophenoxy)-(S)-pyrrolidin-3-yl-methy1]-5-fluoropyridine]",–,–
–,–,CCc1cc(F)cc(F)c1O[C@@H](c1ncco1)[C@H]1CCNC1 [6-53],≧7.0,≧7.0
–,–,Fc1nc(OC(c2ccccc2)C2CCNC2)c(F)c(F)c1F (centres unmarked) [14-42],≧5.0,≧5.0
≤ 100,≤ 0.1,"Fc1cc(Cl)cc(F)c1OC(c1cncc(Cl)c1)C1CCNC1 [Example 2-25, 3-Chloro-5-[(R)-(4-chloro-2,6-difluorophenoxy)-(S)-pyrrolidin-3-yl-methy1]-pyridine]",–,–
–,–,CC(=O)c1cc(F)cc(F)c1O[C@@H](c1ncco1)[C@H]1CCNC1.O=C(O)C(F)(F)F [6-28],≧5.0,≧7.0
≤ 10000,≤ 10,Fc1cc(F)c(O[C@@H](c2ncco2)[C@H]2CCNC2)c(F)c1 [6-2],–,–
–,–,Fc1ccc(O[C@H](c2nccs2)[C@H]2CCNC2)cc1Cl [Example 5-31],≧7.0,≧7.0
≤ 100,≤ 10,"Fc1ccc(O[C@H](c2nccs2)[C@H]2CCNC2)c(Cl)c1 [Example 5-19, 2-[(S)-(2-Chloro-4-fluorophenoxy)-(S)-pyrrolidin-3-ylmethyl]thiazole]",–,–
≤ 100,≤ 10,"Fc1cncc([C@@H](Oc2c(Cl)c(F)cc(F)c2Cl)[C@H]2CCNC2)c1 [Example 2-42, 3-[(S)-(2,6-Dichloro-3,5-difluorophenoxy)-(S)-pyrrolidin-3-yl-methyl]-5-fluoropyridine]",–,–
–,–,Cc1cc(Cl)cc(C)c1O[C@@H](c1ncco1)[C@H]1CCNC1.O=C(O)C(F)(F)F [6-15],≧7.0,≧5.0
≤ 100,≤ 0.1,"Cc1cc(Cl)ccc1OC(c1nccs1)[C@H]1CCNC1 (single isomer, unassigned) [Example 4]",–,–
–,–,Cc1ccc(O[C@@H](c2ccccc2)[C@H]2CCNC2)nc1.O=C(O)C(F)(F)F [14-30],≧5.0,≧7.0
–,–,COc1cccnc1O[C@@H](c1ccccc1)[C@H]1CCNC1.O=C(O)C(F)(F)F [14-39],≧7.0,≧5.0
≤ 10000,≤ 10,"Cc1cc(Cl)ccc1O[C@@H](c1ccco1)[C@H]1CCNC1 [Example 8-2, (S)-3-[(R)-(4-Chloro-2-methylphenoxy)furan-2-yl-methyl]pyrrolidine]",–,–
–,–,COc1cc(F)c(O[C@@H](c2nccs2)[C@H]2CCNC2)c(F)c1 [Example 5-28],≧7.0,≧5.0
≤ 10000,≤ 10,"Fc1ccc(F)c(O[C@@H](c2ccco2)[C@H]2CCNC2)c1Cl [Example 8-1, (S)-3-[(R)-(2-Chloro-3,6-difluorophenoxy)furan-2-yl-methyl]pyrrolidine]",–,–
